Data published in patent US20240245789A1, “POLYMER CONJUGATES OF DRUGS TARGETING 5-HT AND OTHER RECEPTORS IN THE CENTRAL NERVOUS SYSTEM (CNS) THAT ALSO TARGETS RECEPTORS OUTSIDE OF THE CNS” (Arbormentis LLC, priority 2021, published 2024).

Experiments:
NMDAR1 receptor = test: protein expression of NMDAR1 in the liver of NAFLD mice
CCL-2 = test: mRNA expression of CCL2 in HepG2 cells (in vitro NAFLD model); conditions: PA:OA mix
TNF-α = test: mRNA expression of TNF-α in HepG2 cells (in vitro NAFLD model); conditions: PA:OA mix
[1] = system: mice fed with standard diet; conditions: 0.05 mg/kg daily

Row | Compound | expression of the NMDAR1 receptor in the liver (NMDAR1 receptor) | mRNA expression of CCL-2 (CCL-2) | mRNA expression of TNF-α (TNF-α) | signs of hepatic damage (hepatotoxicity) [1]
1 | CN(C)CCc1c[nH]c2cccc(O)c12 [psilocin] | counteracting its overexpression induced by steatosis | reduction in the mRNA expression | reduction in the mRNA expression | –
2 | CN(C)CCc1c[nH]c2cccc(OP(=O)(O)O)c12 [psilocybin] | – | – | – | no signs of hepatic damage were observed
